In ChEMBL document CHEMBL5244269, “Improving metabolic stability and removing aldehyde oxidase liability in a 5-azaquinazoline series of IRAK4 inhibitors” (Bioorg Med Chem, 2020):

Legend:
Assay type in all cases: functional
OCI-Ly10 [1] = assay: Growth inhibition of human OCILY10 cells at 0.33 uM incubated for 3 days in presence of 0.033 uM acalabrutinib relative to control; details: OCI-Ly10, 72 h, time 3 day, read-out: GI
OCI-Ly10 [2] = assay: Growth inhibition of human OCILY10 cells at 3.3 uM incubated for 3 days in presence of 0.033 uM acalabrutinib relative to control; details: OCI-Ly10, 72 h, time 3 day, read-out: GI
OCI-Ly10 [3] = assay: Growth inhibition of human OCILY10 cells at 3.3 uM incubated for 3 days in presence of 0.003 uM acalabrutinib relative to control; details: OCI-Ly10, 72 h, time 3 day, read-out: GI
OCI-Ly10 [4] = assay: Growth inhibition of human OCILY10 cells at 0.17 uM incubated for 3 days in presence of 0.17 uM acalabrutinib relative to control; details: OCI-Ly10, 72 h, time 3 day, read-out: GI
OCI-Ly10 [5] = assay: Growth inhibition of human OCILY10 cells at 0.17 uM incubated for 3 days in presence of 0.017 uM acalabrutinib relative to control; details: OCI-Ly10, 72 h, time 3 day, read-out: GI
OCI-Ly10 [6] = assay: Growth inhibition of human OCILY10 cells at 10 uM incubated for 3 days in presence of 0.003 uM acalabrutinib relative to control; details: OCI-Ly10, 72 h, time 3 day, read-out: GI
OCI-Ly10 [7] = assay: Growth inhibition of human OCILY10 cells at 0.33 uM incubated for 3 days in presence of 0.017 uM acalabrutinib relative to control; details: OCI-Ly10, 72 h, time 3 day, read-out: GI
SUD4 [8] = assay: Growth inhibition of human SU-DHL-4 cells at 3.3 uM incubated for 3 days in presence of 0.003 uM acalabrutinib relative to control; details: SU-DHL-4, 72 h, time 3 day, read-out: GI
SUD4 [9] = assay: Growth inhibition of human SU-DHL-4 cells at 0.17 uM incubated for 3 days in presence of 0.17 uM acalabrutinib relative to control; details: SU-DHL-4, 72 h, time 3 day, read-out: GI
SUD4 [10] = assay: Growth inhibition of human SU-DHL-4 cells at 10 uM incubated for 3 days in presence of 0.33 uM acalabrutinib relative to control; details: SU-DHL-4, 72 h, time 3 day, read-out: GI
SUD4 [11] = assay: Growth inhibition of human SU-DHL-4 cells at 0.33 uM incubated for 3 days in presence of 0.003 uM acalabrutinib relative to control; details: SU-DHL-4, 72 h, time 3 day, read-out: GI
OCI-Ly10 [12] = assay: Growth inhibition of human OCILY10 cells at 10 uM incubated for 3 days in presence of 0.017 uM acalabrutinib relative to control; details: OCI-Ly10, 72 h, time 3 day, read-out: GI
OCI-Ly10 [13] = assay: Growth inhibition of human OCILY10 cells at 0.33 uM incubated for 3 days in presence of 0.003 uM acalabrutinib relative to control; details: OCI-Ly10, 72 h, time 3 day, read-out: GI
SUD4 [14] = assay: Growth inhibition of human SU-DHL-4 cells at 0.33 uM incubated for 3 days in presence of 0.017 uM acalabrutinib relative to control; details: SU-DHL-4, 72 h, time 3 day, read-out: GI
OCI-Ly10 [15] = assay: Growth inhibition of human OCILY10 cells at 3.3 uM incubated for 3 days in presence of 0.17 uM acalabrutinib relative to control; details: OCI-Ly10, 72 h, time 3 day, read-out: GI
SUD4 [16] = assay: Growth inhibition of human SU-DHL-4 cells at 0.33 uM incubated for 3 days in presence of 0.33 uM acalabrutinib relative to control; details: SU-DHL-4, 72 h, time 3 day, read-out: GI
SUD4 [17] = assay: Growth inhibition of human SU-DHL-4 cells at 0.17 uM incubated for 3 days in presence of 0.017 uM acalabrutinib relative to control; details: SU-DHL-4, 72 h, time 3 day, read-out: GI
SUD4 [18] = assay: Growth inhibition of human SU-DHL-4 cells at 1.7 uM incubated for 3 days in presence of 0.003 uM acalabrutinib relative to control; details: SU-DHL-4, 72 h, time 3 day, read-out: GI
OCI-Ly10 [19] = assay: Growth inhibition of human OCILY10 cells at 1.7 uM incubated for 3 days in presence of 0.17 uM acalabrutinib relative to control; details: OCI-Ly10, 72 h, time 3 day, read-out: GI
SUD4 [20] = assay: Growth inhibition of human SU-DHL-4 cells at 10 uM incubated for 3 days in presence of 0.033 uM acalabrutinib relative to control; details: SU-DHL-4, 72 h, time 3 day, read-out: GI
OCI-Ly10 [21] = assay: Growth inhibition of human OCILY10 cells at 0.33 uM incubated for 3 days in presence of 0.17 uM acalabrutinib relative to control; details: OCI-Ly10, 72 h, time 3 day, read-out: GI
OCI-Ly10 [22] = assay: Growth inhibition of human OCILY10 cells at 1.7 uM incubated for 3 days in presence of 0.003 uM acalabrutinib relative to control; details: OCI-Ly10, 72 h, time 3 day, read-out: GI
OCI-Ly10 [23] = assay: Growth inhibition of human OCILY10 cells at 10 uM incubated for 3 days in presence of 0.17 uM acalabrutinib relative to control; details: OCI-Ly10, 72 h, time 3 day, read-out: GI
OCI-Ly10 [24] = assay: Growth inhibition of human OCILY10 cells at 0.33 uM incubated for 3 days in presence of 0.33 uM acalabrutinib relative to control; details: OCI-Ly10, 72 h, time 3 day, read-out: GI
SUD4 [25] = assay: Growth inhibition of human SU-DHL-4 cells at 3.3 uM incubated for 3 days in presence of 0.33 uM acalabrutinib relative to control; details: SU-DHL-4, 72 h, time 3 day, read-out: GI
SUD4 [26] = assay: Growth inhibition of human SU-DHL-4 cells at 1.7 uM incubated for 3 days in presence of 0.33 uM acalabrutinib relative to control; details: SU-DHL-4, 72 h, time 3 day, read-out: GI
OCI-Ly10 [27] = assay: Growth inhibition of human OCILY10 cells at 0.17 uM incubated for 3 days in presence of 0.33 uM acalabrutinib relative to control; details: OCI-Ly10, 72 h, time 3 day, read-out: GI
SUD4 [28] = assay: Growth inhibition of human SU-DHL-4 cells at 1.7 uM incubated for 3 days in presence of 0.017 uM acalabrutinib relative to control; details: SU-DHL-4, 72 h, time 3 day, read-out: GI
SUD4 [29] = assay: Growth inhibition of human SU-DHL-4 cells at 0.17 uM incubated for 3 days in presence of 0.003 uM acalabrutinib relative to control; details: SU-DHL-4, 72 h, time 3 day, read-out: GI
OCI-Ly10 [30] = assay: Growth inhibition of human OCILY10 cells at 0.17 uM incubated for 3 days in presence of 0.033 uM acalabrutinib relative to control; details: OCI-Ly10, 72 h, time 3 day, read-out: GI
SUD4 [31] = assay: Growth inhibition of human SU-DHL-4 cells at 0.17 uM incubated for 3 days in presence of 0.033 uM acalabrutinib relative to control; details: SU-DHL-4, 72 h, time 3 day, read-out: GI
SUD4 [32] = assay: Growth inhibition of human SU-DHL-4 cells at 0.33 uM incubated for 3 days in presence of 0.17 uM acalabrutinib relative to control; details: SU-DHL-4, 72 h, time 3 day, read-out: GI
SUD4 [33] = assay: Growth inhibition of human SU-DHL-4 cells at 3.3 uM incubated for 3 days in presence of 0.17 uM acalabrutinib relative to control; details: SU-DHL-4, 72 h, time 3 day, read-out: GI
SUD4 [34] = assay: Growth inhibition of human SU-DHL-4 cells at 10 uM incubated for 3 days in presence of 0.017 uM acalabrutinib relative to control; details: SU-DHL-4, 72 h, time 3 day, read-out: GI
OCI-Ly10 [35] = assay: Growth inhibition of human OCILY10 cells at 3.3 uM incubated for 3 days in presence of 0.33 uM acalabrutinib relative to control; details: OCI-Ly10, 72 h, time 3 day, read-out: GI
OCI-Ly10 [36] = assay: Growth inhibition of human OCILY10 cells at 1.7 uM incubated for 3 days in presence of 0.033 uM acalabrutinib relative to control; details: OCI-Ly10, 72 h, time 3 day, read-out: GI
SUD4 [37] = assay: Growth inhibition of human SU-DHL-4 cells at 10 uM incubated for 3 days in presence of 0.17 uM acalabrutinib relative to control; details: SU-DHL-4, 72 h, time 3 day, read-out: GI
OCI-Ly10 [38] = assay: Growth inhibition of human OCILY10 cells at 0.17 uM incubated for 3 days in presence of 0.003 uM acalabrutinib relative to control; details: OCI-Ly10, 72 h, time 3 day, read-out: GI
SUD4 [39] = assay: Growth inhibition of human SU-DHL-4 cells at 10 uM incubated for 3 days in presence of 0.003 uM acalabrutinib relative to control; details: SU-DHL-4, 72 h, time 3 day, read-out: GI
OCI-Ly10 [40] = assay: Growth inhibition of human OCILY10 cells at 10 uM incubated for 3 days in presence of 0.033 uM acalabrutinib relative to control; details: OCI-Ly10, 72 h, time 3 day, read-out: GI
SUD4 [41] = assay: Growth inhibition of human SU-DHL-4 cells at 1.7 uM incubated for 3 days in presence of 0.033 uM acalabrutinib relative to control; details: SU-DHL-4, 72 h, time 3 day, read-out: GI

Cc1ncc(-c2nc3c(NC(C)C)nc(Nc4cnn(C5CC6(C5)CN(C)C6)c4)nc3cc2F)cn1 was tested, and the inhibition of growth at 0.33 µM (OCI-Ly10 [1]) was 177%, the inhibition of growth at 3.3 µM (OCI-Ly10 [2]) was 196% and the inhibition of growth at 3.3 µM (OCI-Ly10 [3]) was 189%. It also gave an inhibition of growth at 0.17 µM (OCI-Ly10 [4]) of 172%, an inhibition of growth at 0.17 µM (OCI-Ly10 [5]) of 97% and an inhibition of growth at 10 µM (OCI-Ly10 [6]) of 196%. It also gave an inhibition of growth at 0.33 µM (OCI-Ly10 [7]) of 158%, an inhibition of growth at 3.3 µM (SUD4 [8]) of 4% and an inhibition of growth at 0.17 µM (SUD4 [9]) of 3%. The inhibition of growth at 10 µM (SUD4 [10]) was 10%, the inhibition of growth at 0.33 µM (SUD4 [11]) was 3% and the inhibition of growth at 10 µM (OCI-Ly10 [12]) was 197%. The inhibition of growth at 0.33 µM (OCI-Ly10 [13]) was 51%, the inhibition of growth at 0.33 µM (SUD4 [14]) was 3% and the inhibition of growth at 3.3 µM (OCI-Ly10 [15]) was 196%. For the same compound, the inhibition of growth at 0.33 µM (SUD4 [16]) was 6%, the inhibition of growth at 0.17 µM (SUD4 [17]) was 3% and the inhibition of growth at 1.7 µM (SUD4 [18]) was 3%. The inhibition of growth at 1.7 µM (OCI-Ly10 [19]) was 197%, the inhibition of growth at 10 µM (SUD4 [20]) was 6% and the inhibition of growth at 0.33 µM (OCI-Ly10 [21]) was 185%. For the same compound, the inhibition of growth at 1.7 µM (OCI-Ly10 [22]) was 170%, the inhibition of growth at 10 µM (OCI-Ly10 [23]) was 199% and the inhibition of growth at 0.33 µM (OCI-Ly10 [24]) was 183%. The inhibition of growth at 3.3 µM (SUD4 [25]) was 7%, the inhibition of growth at 1.7 µM (SUD4 [26]) was 6% and the inhibition of growth at 0.17 µM (OCI-Ly10 [27]) was 173%. It also gave an inhibition of growth at 1.7 µM (SUD4 [28]) of 3%, an inhibition of growth at 0.17 µM (SUD4 [29]) of 3% and an inhibition of growth at 0.17 µM (OCI-Ly10 [30]) of 137%. For the same compound, the inhibition of growth at 0.17 µM (SUD4 [31]) was 2%, the inhibition of growth at 0.33 µM (SUD4 [32]) was 4% and the inhibition of growth at 3.3 µM (SUD4 [33]) was 4%. The inhibition of growth at 10 µM (SUD4 [34]) was 7%, the inhibition of growth at 3.3 µM (OCI-Ly10 [35]) was 195% and the inhibition of growth at 1.7 µM (OCI-Ly10 [36]) was 196%. For the same compound, the inhibition of growth at 10 µM (SUD4 [37]) was 7%, the inhibition of growth at 0.17 µM (OCI-Ly10 [38]) was 29% and the inhibition of growth at 10 µM (SUD4 [39]) was 7%. It also gave an inhibition of growth at 10 µM (OCI-Ly10 [40]) of 198% and an inhibition of growth at 1.7 µM (SUD4 [41]) of 3%.
